This note sets out measurements from PubChem BioAssay (NCI).

SMILES strings stand for the structures.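 Dose response: 5 concentrations. Exposure: 48 h. Format: 96-well plates. Endpoint: linear interpolation; highest concentration if not reached. GI50: concentration for 50% inhibition of growth. TGI denotes the concentration required for complete inhibition of growth.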 Some results are limits rather than exact numbers.

Broadly, the TGI is the concentration at which net growth stops. For orientation: GI50 means the concentration that inhibits growth by half.

Holding throughout (experiment): DTP human tumour cell line panel, 48 h
In experiment [1] the test system is KM12 colon.
Experiment [2] deals with MDA-MB-435.
The test system of experiment [3] is 786-0 renal.
Experiment [4] relates to NCI-H522 lung.
Experiment [5] has as its system OVCAR-8 ovarian.
Experiment [6] relates to HT29 colon.
For experiment [7], the system named is DU-145 prostate.
In experiment [8] the test system is EKVX NSCLC.
Experiment [9] concerns MALME-3M melanoma.
The test system of experiment [10] is MCF7 breast.

For the compound `CSc1cccc(NC(=O)OC2CCCCCCCCCCC2)c1`, the TGI is 31.5 µM in [1]; 39.9 µM in experiment [2]; 53.9 µM in [3]; 37.1 µM in experiment [4]; greater than 100 µM in experiment [5]; 43.8 µM in experiment [6]. Besides, the concentration for total growth inhibition (TGI) in experiment [7] was greater than 100 µM; in [8] it was 57.6 µM; in experiment [9] it was 59.1 µM; in experiment [10], 60.4 µM.
Turning to `COc1cc(/C=C/C(=O)c2cccnc2Nc2ccc(F)cc2)cc(OC)c1OC`, the GI50 in experiment [1] is 3720 nM; in experiment [2], 3050 nM; in [3] it was 3900 nM; in experiment [4] it was 2690 nM; in experiment [5], 2690 nM; in experiment [6], 2750 nM. The GI50 in [7] was 3320 nM; in experiment [8], 3.94 µM; in [9] it was 6.9 µM; in experiment [10] it was 2440 nM. The concentration for total growth inhibition (TGI) in experiment [1] was 17.6 µM; in [2], 69.3 µM; in experiment [3], 13 µM; in experiment [4], 7.04 µM; in [5], 13.4 µM; in experiment [6], 6.69 µM. Besides, the TGI in experiment [7] is 12.4 µM; in experiment [8], greater than 100 µM; in [9] it was 48.9 µM; in experiment [10], 13.6 µM.
On to `Cc1cccc2c(N)c3ccccc3nc12`, for which the GI50 in experiment [1] was 1780 nM; in experiment [2], 1670 nM; in [3] it was 1540 nM; in experiment [4] it was 1450 nM; in experiment [5], 940 nM; in experiment [6], 593 nM. Moreover, the GI50 in experiment [7] is 1530 nM; in experiment [8] it was 2.76 µM; in [9] it was 1.39 µM; in experiment [10], 1320 nM. Also, the TGI in experiment [1] is 12.2 µM; in [2], 4.54 µM; in experiment [3], 7.49 µM; in experiment [4], 4.12 µM; in experiment [5], 10.7 µM; in experiment [6] it was 3.58 µM. Also, the TGI in experiment [7] turned out to be 12.3 µM; in [8] it was 9.99 µM; in experiment [9] it was 3.21 µM; in [10], 11.6 µM.
For the compound `O=C1NCCS(=O)(=O)/C1=C\C=C\c1cccc(C(F)(F)F)c1`, the GI50 is 2360 nM in experiment [1]; 1810 nM in experiment [2]; 2640 nM in experiment [3]; 1430 nM in experiment [4]; 3460 nM in [5]; 2300 nM in experiment [6]. The GI50 in experiment [7] is 2960 nM; in experiment [8], 4.31 µM; in experiment [9] it was 4.02 µM; in experiment [10], 188 nM. Moreover, the TGI in [1] amounted to 6.67 µM; in [2] it was 6.47 µM; in experiment [3] it was 7.67 µM; in experiment [4], 3.19 µM; in [5], 16.8 µM; in [6] it was 5.38 µM. In addition, the TGI in experiment [7] stood at 13.6 µM; in [8], 16.5 µM; in [9], 17.2 µM; in experiment [10], 11 µM.
As to `CCN(CC)CCSCCCNc1c2ccc(Cl)cc2nc2ccc(OC)cc12`, the GI50 is 802 nM in experiment [1]; 1460 nM in experiment [2]; 1120 nM in experiment [3]; 1390 nM in experiment [4]; 1000 nM in experiment [5]; 423 nM in [6]. Besides, the GI50 in [7] was 633 nM; in [8] it was 1.73 µM; in experiment [9] it was 2.03 µM; in experiment [10] it was 791 nM. The TGI in [1] came out at 5.03 µM; in experiment [2] it was 2.89 µM; in experiment [3] it was 2.43 µM; in experiment [4], 3.13 µM; in experiment [5], 3.54 µM; in experiment [6], 1.94 µM. The TGI in experiment [7] was 3.01 µM; in experiment [8] it was 4.72 µM; in [9], 3.73 µM; in experiment [10], 3.26 µM.
On to `NCCSCCc1ccccc1`, for which the TGI in [1], in experiment [2], in experiment [3], in experiment [4], in [5] and in experiment [6] was greater than 100 µM throughout. In addition, the TGI in experiment [7], in [8], in [9] and in experiment [10] was greater than 100 µM throughout.
Take `N#Cc1cc(S(=O)(=O)Nc2nc3ccccc3s2)c(SCc2ccccc2)cc1Cl`: the GI50 in [1] is 19800 nM; in experiment [2], 23800 nM; in experiment [3], 19300 nM; in experiment [4], 11300 nM; in experiment [5], 6120 nM; in [6] it was 23600 nM. Besides, the GI50 is 24400 nM in experiment [7], 17.1 µM in [8], 21.4 µM in [9] and 30700 nM in [10]. In addition, the TGI in experiment [1] is 46.7 µM; in [2] it was 49.5 µM; in experiment [3], 39.9 µM; in [4] it was 32.3 µM; in experiment [5], 39.8 µM; in [6], 55.8 µM. For the same compound, the concentration for total growth inhibition (TGI) in experiment [7] was 58.6 µM; in experiment [8], 34.5 µM; in experiment [9], 49.6 µM; in experiment [10], greater than 100 µM.
Regarding `CCc1nc(N)nc(N)c1-c1ccc(Cl)c(N=CN(C)C)c1`, the TGI was greater than 100 µM in experiment [1]; greater than 100 µM in experiment [2]; greater than 100 µM in experiment [3]; 62.7 µM in [4]; greater than 100 µM in [5]; greater than 100 µM in [6]. Also, the total growth inhibition concentration (TGI) in [7], in [8] and in experiment [10] was greater than 100 µM each time.
In the case of `CCn1c2ccccc2c2cc(C(O)c3cccc4ncccc34)ccc21` (configuration not stated), the GI50 in [1] is 42.1 nM; in [2] it was 21.5 nM; in experiment [3], 55.9 nM; in experiment [4] it was 21.2 nM; in experiment [5], 122 nM; in experiment [6], 35.7 nM. The GI50 in experiment [7] was 82.8 nM; in experiment [8], 0.0864 µM; in experiment [10], 33.1 nM. In addition, the total growth inhibition concentration (TGI) in [1] was 6.56 µM; in experiment [2] it was 0.06 µM; in experiment [3] it was 7.29 µM; in experiment [4], 0.107 µM; in [5], greater than 69.4 µM; in experiment [6], 1.66 µM. Moreover, the TGI is 4.78 µM in [7], greater than 100 µM in experiment [8] and 20.2 µM in experiment [10].
